In patent US20250248393A1, “METHOD OF RELEASING A SEMIOCHEMICAL IN THE ENVIRONEMENT BY PASSIVE DIFFUSION, SYSTEM AND MEANS, ESPECIALLY STICKS, TO THIS END, AND USES THEREOF” (SIGNS, priority 2024, published 2025):
Where two headings read alike, the source gives them in different places.

Key:
[1] = cited from earlier work
[2] = F3 sticks device, direct diffusion, 40 mL and four sticks (SPME GC/MS); type: physicochemical; conditions: four sticks
Method: Three devices containing 40 mL of F3 feline facial pheromone product and four rattan sticks were prepared and left on diffusion. Every Monday, Wednesday and Friday, the diffusion of the pheromone in air was checked by analysis by gas chromatography coupled with mass spectrometer (GC/MS) and SPME (solid phase microextraction) until there is no liquid left (about 22 days).
To that purpose, the studied device was taken and placed into a closed space (in our case an aquarium turned over) containing the SPME fiber as shown on FIG. 24.
The SPME fiber was left for two hours to give the time for the molecules to adsorb on the fiber, then the fiber was injected into the GC/MS instrument for analysis.
Analysis were carried out using gas chromatography with mass spectrometer. The instrument was a GCMS QP2010SE® from Shimadzu with an AOC6000® Autosampler. The separation was performed on a ZB-5 MS® column (30 m×0.25 mm×0.25 μm, stationary phase: 95% Dimethylpolysiloxane, 5% Phenyl-Arylene) from Phenomenex. The GC oven temperature was initially held at 100° C. for 1 minute then increased at a pace of 10° C./min to 120° C. and left at this temperature for 3 minutes. Finally, the oven temperature was increased at a pace of 10° C./min to 240° C. and left at this temperature for 10 minutes. The carrier gas was helium at 1 mL/min. Analysis were performed in split mode using a split/splitless injector (Temperature: 250° C., split: 1:20). The SPME fiber was directly injected into the injector and left for 30 minutes. Separated molecules were detected using a mass spectrometer which was operated in electron impact ionization (EI) in both full scan (FS) and single ion monitoring (SIM) modes, so called FASST (Fast Automated SCAN/SIM type) mode. The interface temperature was set at 300° C. and electron impact source temperature at 250° C. The analyser was a quadrupole.
For the measurement of the relative quantity of active ingredient spreading in air, the area of the chromatographic peak corresponding to the compound was measured using Shimadzu GCMS-Solution software.

[3] = F3 block stability study in sodium stearate aqueous gel (GC-MS); type: physicochemical; conditions: after 3 months
Method: Aqueous sodium stearate gel is a method used by SIGNS for several of the pheromones it markets (pork, poultry, rabbit). The sodium stearate matrix is cast at high temperature (60° C.) and contains 2% pheromone. In this study, matrix samples are taken by coring, and the active ingredients are extracted by apolar solvent, using the SIGNS-validated quality control method. Extracts are analyzed by GC-MS. […] Given this observation, formula F3 cannot be used in blocks for passive diffusion, so a change of galenic formulation is necessary.

[4] = F3 migration along the stick (top 1 cm, GC/MS); type: physicochemical; conditions: F3, five sticks
Method: Three devices containing 40 mL of F3 feline facial pheromone product and five […] sticks were prepared and left on diffusion. A t=1 day, T=3 days, T=10 days, T=15 days and T=22 days after preparation of the devices, one stick was taken on each device and 1 cm of the top of each stick was cut, then extracted with acetone 1 h in an ultrasonic bath and analysed by gas chromatography coupled with mass spectrometry (GC/MS). The same analytical parameters were used for the study C with a liquid injection (injected quantity: […]) Blank analysis and matrix blank analysis were also performed.

[5] = Ratios of molecules diffused through the sticks over time; type: physicochemical
Method: Furthermore, as small molecules diffuse more, it happens that they lose intensity over the course of the study, so the ratios are different 24 hours after immersing the sticks in the liquid and 21 days later. Here are the ratios for each pheromone studied at the start of the study and at the end.

[6] = DAP PCDS direct diffusion (SPME-GC/MS); type: physicochemical; conditions: DAP/PCDS diffuser, 40 mL, 6 capillaries
Method: Three diffusers, each containing 40 mL of solution and 6 capillaries, were prepared and diffused. The first points were measured at T=1d, T=2, and T=3d, then every Monday, Wednesday and Friday of each study week until the diffusers no longer contained any solution. To measure the pheromone released into the air at each study time, the diffuser is first weighed (with the sticks) to measure mass loss, then placed in an enclosed area (in this case, an upside-down aquarium) containing a SPME fiber, as shown in FIG. 24.
The fiber is left to diffuse above the diffuser for 2 hours (a time determined in a previous method development as the optimum time for molecules to adsorb to the phase), then analyzed using the gas chromatography/mass spectrometry (GC/MS) technique.
Three diffusers were studied for greater accuracy. The chromatograms obtained are reprocessed using GC/MS Solution software.
For each chromatographic peak, the area is recorded using GC/MS Solution software, then entered into an Excel spreadsheet. Diffusion curves giving the area of the chromatographic peak corresponding to each active ingredient as a function of time are then plotted.
Analyses were carried out by gas chromatography/mass spectrometry (GC/MS). The instrument was a Shimadzu GCMS QP2010SE® equipped with an AOC 6000® autosampler. Separation was carried out on a ZB-FFAP® column (30 m×0.25 mm×0.25 μm, stationary phase: nitroterephthalic acid-modified polyethylene glycol) supplied by Phenomenex. The furnace temperature was initially set at 80° C. for 1 minute, then increased at 10° C./min to 240° C. and maintained at this temperature for 2 minutes. The carrier gas was helium at a flow rate of 1 mL/min. Analysis time is 19 minutes.
The injector is a split/splitless injector used in split mode (temperature: 250° C., split: 50:1). The SPME fiber was injected directly into the injector and left to desorb for 15 minutes.
The separated molecules were detected using a mass spectrometer equipped with an electron impact source (temperature: 200° C.). The analyzer is a simple quadrupole. The interface temperature is 250° C. Data were acquired in FASST mode (Fast automated SCAN/SIM type), i.e. part of the analysis was performed by scanning all ions (SCAN) and part by selecting specific ions (SIM). Target molecules were thus analyzed using ion selection.

[7] = Indirect assay of diffuser blocks (GC/FID, pheromone remaining in the block); type: physicochemical; conditions: despecified pheromone
Method: Analyses were carried out using the gas chromatography (GC) technique with a flame ionization detector (FID), commonly known as GC/FID. The instrument used was the Shimadzu GC2025.® • Injection: Quantity injected: 1 μL, split 50:1, temperature: 230° C. • Separation: DB-WAX column (Agilent), length: 20 m, diameter: 180 μm, film thickness: […] • Carrier gas: Helium (He) • Analysis time: 11.50 min (not including time to return to equilibrium between each analysis) injection). • Detection: FID, temperature: 250° C., flow rates: H2: 40 mL/min, Air: 400 mL/min, Nitrogen (make-up): 30 mL/min. To obtain a representative sample, “cores” were drilled at various positions in the block and then collected. 2.5 g of gel were weighed into a 50 mL volumetric flask and the volume made up to the beginning of the neck of the flask with acetone. The flask was then placed in an ultrasonic bath for one hour until the block was dissolved (a white precipitate was obtained), then acetone was added to the mark. An aliquot of this solution was placed in a syringe fitted with a syringe filter and filtered to obtain a translucent solution. The resulting solution was transferred to a 1.5 mL GC vial for analysis. The assays were carried out using a calibration range.

[8] = Direct diffusion of diffuser blocks (SPME GC/MS); type: physicochemical; conditions: despecified pheromone 2%, 4 weeks
Method: Analyses were carried out using gas chromatography (GC) coupled to a mass spectrometer (MS) detector, a technique commonly referred to as GCMS. The molecules of interest were extracted using the Solid Phase Micro-Extraction (SPME) technique. The instrument used was the following: QP2010SE® from Shimadzu (See FIG. 4).
AOC 6000® automatic feeder • Extraction/SPME fiber: polyacrylate/Fused silica (85 μm), 23 Ga. • Adsorption time: 2 hours (exposure time of fiber above block) (See FIG. 4) • Desorption time: 30 minutes (fiber exposure time in injector) • Fiber-block distance: 2 cm • Injection: split/splitless injector • Temperature: 250° C., split 50 mode. • Separation: ZB-FFAP® column (Phénomenex), length: 30 m, diameter: 250 μm, film thickness: […]
• Carrier gas: Helium (He) • Analysis time: 18 min (not including time to return to equilibrium between each analysis injection • Detection: mass spectrometer with electron impact source/analyzer: quadrupole. • Source temperature: 200° C. • Interface temperature: 250° C. • Scan m/z 50 to m/z 500 • SIM with ions 55, 66 and 74.
Analyses were carried out in triplicate to verify reproducibility of results.
With the SPME method, results are evaluated by measuring the chromatographic peak area. The data have been plotted on diffusion curve (see FIGS. 5 and 6).

[9] = Indirect assay of rod diffuser solution (GC/FID); type: physicochemical; conditions: stick diffuser solution, despecified pheromone
Method: Solution integrity was checked at each analysis time. Before each indirect assay, the vial was weighed to visualize mass loss over time. Each vial contained six sticks. • Specifications: the solution must lose mass over time. • Result: Compliant—See FIG. 9 This is the same analytical method as for the diffuser block study, only the sample preparation differs. 1.25 g of solution were weighed into a 25 mL volumetric flask and the volume made up to the mark with acetone. The resulting solution is transferred to a 1.5 mL GC vial for analysis. This is exactly the same calibration range as for the diffuser block study.

[10] = Pheromone migrated to the stick tips (GC/FID); type: physicochemical; conditions: on stick tips, despecified pheromone
Method: In the course of this study, we also measured the amount of pheromone migrating on the sticks, to check that the pheromone had migrated to the top of the sticks, helping it to diffuse into the air. To do this, the test is the same as for the diffuser blocks: 2.5 g of stick tips are cut off and placed in a 50 mL flask, which is then placed in an ultrasonic bath for one hour. The resulting solution is filtered (to avoid injecting particles into the instrument) and placed in a chromatographic vial for analysis.

[11] = F3P, 24 h after immersion of the sticks
[12] = F3P, 21 days after immersion of sticks (empty tank)
[13] = DAP, 24 h after immersion of sticks
[14] = DAP, 21 days after immersion of sticks (empty tank)

COC(C)(C)CCO [3-methoxy-3-methyl-1-butanol]
vapor pressure ([1]; at 20° C.): 0.07 kPa | vapor pressure ([1]; at 25° C.): 0.12 kPa

COC(=O)CCCCCCCC(=O)OC [dimethyl azelate, dimethyl nonanedioate]
direct diffusion over time [2]: constant diffusion | stability in the block [3]: disappeared completely | relative quantity on the top of the stick [4]: less present | ratio of molecules diffused through the sticks ([5]; F3, 24 h after immersion of sticks): 25 % (w/w) | ratio of molecules diffused through the sticks ([5]; F3, 21 days after immersion of sticks (empty tank)): 43 % (w/w) | ratio of molecules diffused through the sticks [5, 11]: 18 % (w/w) | ratio of molecules diffused through the sticks [5, 12]: 31.3 % (w/w)

CCCCC/C=C\C/C=C\CCCCCCCC(=O)OC [methyl linoleate, methyl (9Z,12Z)-octadeca-9,12-dienoate]
direct diffusion over time [6]: slight increase over time | % of the active ingredient in the pheromone ([7]; day 0): 30.4% | % of the active ingredient in the pheromone ([7]; day 7): 30.2% | % of the active ingredient in the pheromone ([7]; day 14): 30.4% | % of the active ingredient in the pheromone ([7]; day 21): 30.5% | % of the active ingredient in the pheromone ([7]; day 28): 30.5% | direct diffusion from the diffuser block [8]: lowest intensity | % of the active ingredient in the pheromone ([9]; day 0): 30.0% | % of the active ingredient in the pheromone ([9]; day 7): 30.0% | % of the active ingredient in the pheromone ([9]; day 14): 30.1% | % of the active ingredient in the pheromone ([9]; day 21): 31.5% | ratio of molecules diffused through the sticks [5, 13]: 3 % (w/w) | ratio of molecules diffused through the sticks [5, 14]: 4 % (w/w) | ratio of molecules diffused through the sticks ([5]; Despecified pheromone (Core), 5 days after immersion of the sticks): 2 % (w/w) | ratio of molecules diffused through the sticks ([5]; Despecified pheromone (Core), 21 days after immersion of sticks (empty tank)): 4 % (w/w) | ratio of molecules diffused through the sticks [5, 11]: 0.3 % (w/w) | ratio of molecules diffused through the sticks [5, 12]: 0.5 % (w/w) | % of the active ingredient in the pheromone ([10]; day 7): 29.7% | % of the active ingredient in the pheromone ([10]; day 14): 30.1% | % of the active ingredient in the pheromone ([10]; day 21): 28.6%

CCCCCCCCCCCCCCC(=O)OC [methyl pentadecanoate]
direct diffusion over time [6]: slight increase over time | ratio of molecules diffused through the sticks [5, 13]: 7 % (w/w) | ratio of molecules diffused through the sticks [5, 14]: 9 % (w/w)

CCCCCCCCCCCCCCCCCC(=O)OC [methyl stearate, methyl octadecanoate]
direct diffusion over time [6]: diffuses the least | ratio of molecules diffused through the sticks [5, 13]: 0.5 % (w/w) | ratio of molecules diffused through the sticks [5, 14]: 1 % (w/w) | ratio of molecules diffused through the sticks [5, 11]: 0.1 % (w/w) | ratio of molecules diffused through the sticks [5, 12]: 0.1 % (w/w)
